Measured values: patent publication US4205952A, “Specific binding assay method and reagent means” (Technion Research & Development Foundation Ltd., priority 1976, dated 1980)

Legend:
[1] = test system: sepharose-bound anti-E2 (HS)-COOH antibodies; assay: Inhibition and cross-reaction experiments with E2(HS)-CONH-CH2-Fc; type: binding, rabbit
Experimental: A fixed volume (30 μl) of a solution of iron-labelled estradiol hemisuccinate, E2 (HS)-CONH-CH2 Fc, of suitable concentration (selected from the results obtained in Step (ii) above) was mixed with a constant volume (30 μl) of solutions of various concentrations of unlabelled hapten, estradiol hemisuccinate (or estrone-17-(0-Carboxymethyl)oxime, E1 (Ox)-COOH). This mixture was added to a constant volume (60 μl) of the sepharose-bound antibodies, Vortex-mixed for 1 min. and allowed to incubate at room temperature for 30 min. The Vortex-mixing was repeated at intervals of 10 min. The assay mixture was then centrifuged for 1 min. at 3000 r.p.m. Aliquots (30 μl) were extracted with an Eppendorf pipette and injected into the graphite tube of the AA instrument. The following controls were taken through the same procedure to determine specificity: (a) a suspension of sepharose-bound antibodies without addition of metal-labelled hapten; (b) the mixtures of metal-labelled and non-labelled haptens, without addition of the sepharose-bound antibodies; (c) the mixture of metal-labelled and non-labelled haptens with addition of sepharose-bound γ-globulins of normal rabbit serum.

[2] = test system: Anti-BSA antiserum; assay: Interaction of cobalt-labelled BSA conjugate with anti-BSA antibodies, supernatant Co by AAS; type: binding
Experimental: (1) Anti-BSA antiserum (100 μl) was added to each of four tubes numbered 1 to 4. The same volume (100 μl) of 0.01 M phosphate buffer was added to each of additional four tubes, numbered 5 to 8.
(2) A fixed volume (100 μl) of four dilutions of BSA-Cobalt labelled conjugate, containing 0.23, 0.47, 0.94 and 1.88 μg Co/ml (or 0.8, 1.6, 3.1 and 6.2 μg BSA conjugate/100 μl of sample) added to the tubes 1 to 4 respectively and similarly to tubes 5 to 8 respectively.
(3) The solutions were mixed on a Vortex, allowed to incubate for 1 hr. at 37° C. and then for 48 hrs. at 4° C.
(4) The tubes were then centrifuged for 30 min. at 4° C.
(5) The supernatant was analyzed for Co by atomic absorption.
The readings obtained from tubes 5 through 8 served as calibrating controls. The readings from tubes 1 through 4 then indicated the amount of free cobalt-labelled BSA left in solution (by difference the "bound" BSA antigen could be determined). The atomic absorption measurements were interpolated into the calibration curve and gave 0.00, 0.06, 0.59 and 1.25 μg Co/ml of "free" hapten, equivalent to a concentration of 0,0.2,2.0 and 4.3 μg BSA conjugate/100 μl of original sample in tubes 1,2,3 and 4 respectively.

C[C@]12CC[C@@H]3c4ccc(O)cc4CC[C@H]3[C@@H]1CCC2=NOCC(=O)O [E1 (OX)--COOH, Extrone oxime-0-carboxymethyl]
Inhibition of E2 (HS)--CONH--CH2 Fc (27.5 × 10^-7 M), cross-reaction ([1]; unlabelled hapten 3.75 × 10^-7 M): 0.5% | Inhibition of E2 (HS)--CONH--CH2 Fc (27.5 × 10^-7 M), cross-reaction ([1]; unlabelled hapten 7.5 × 10^-7 M): 3.0% | Inhibition of E2 (HS)--CONH--CH2 Fc (27.5 × 10^-7 M), cross-reaction ([1]; unlabelled hapten 15.0 × 10^-7 M (E1 column)): 6.5% | Inhibition of E2 (HS)--CONH--CH2 Fc (27.5 × 10^-7 M), cross-reaction ([1]; unlabelled hapten 37.5 × 10^-7 M): 9.5% | Inhibition of E2 (HS)--CONH--CH2 Fc (27.5 × 10^-7 M), cross-reaction ([1]; unlabelled hapten 75.0 × 10^-7 M): 25.5% | Inhibition of E2 (HS)--CONH--CH2 Fc (27.5 × 10^-7 M), cross-reaction ([1]; unlabelled hapten 150.0 × 10^-7 M (E1 column)): 50.5%

C[C@]12CC[C@@H]3c4ccc(O)cc4CC[C@H]3[C@@H]1CC[C@@H]2OC(=O)CCC(=O)O [E2 (HS)--COOH, Estradiol-17β-hemisuccinate]
Inhibition of E2 (HS)--CONH--CH2 Fc (27.5 × 10^-7 M) ([1]; unlabelled hapten 3.6 × 10^-7 M): 8.5% | Inhibition of E2 (HS)--CONH--CH2 Fc (27.5 × 10^-7 M) ([1]; unlabelled hapten 7.2 × 10^-7 M): 17.5% | Inhibition of E2 (HS)--CONH--CH2 Fc (27.5 × 10^-7 M) ([1]; unlabelled hapten 15.0 × 10^-7 M (E2 column)): 21.5% | Inhibition of E2 (HS)--CONH--CH2 Fc (27.5 × 10^-7 M) ([1]; unlabelled hapten 36.0 × 10^-7 M): 43.5% | Inhibition of E2 (HS)--CONH--CH2 Fc (27.5 × 10^-7 M) ([1]; unlabelled hapten 72.0 × 10^-7 M): 48.0% | Inhibition of E2 (HS)--CONH--CH2 Fc (27.5 × 10^-7 M) ([1]; unlabelled hapten 150.0 × 10^-7 M (E2 column)): 56.0% | Inhibition of E2 (HS)--CONH--CH2 Fc (27.5 × 10^-7 M) ([1]; unlabelled hapten 300.0 × 10^-7 M): 63.5%

BSA-Cobalt labelled conjugate: Bovine serum albumin labelled with carboxycobalticenium N-succinimide ester, about 35 haptens per mole
"free" hapten in supernatant ([2]; tube 1: conjugate 0.23 μg Co/ml, 100 μl + 100 μl antiserum, 1 hr 37° C., 48 hrs 4° C.): 0.00 μg Co/ml | "free" hapten in supernatant ([2]; tube 2: conjugate 0.47 μg Co/ml): 0.06 μg Co/ml | "free" hapten in supernatant ([2]; tube 3: conjugate 0.94 μg Co/ml): 0.59 μg Co/ml | free conjugate, equivalent concentration ([2]; tube 4: 6.2 μg BSA conjugate/100 μl added): 4.3 μg BSA conjugate/100 μl of original sample | "free" hapten in supernatant ([2]; tube 4: conjugate 1.88 μg Co/ml): 1.25 μg Co/ml
